What was measured:
[1] = molecular target: Sigma non-opioid intracellular receptor 1 (Cavia porcellus) (UniProt Q60492); assay: Binding affinity against sigma-1 receptor in guinea pig brain using [3H](+)-pentazocine as radioligand.
[2] = molecular target: Sigma non-opioid intracellular receptor 1 (Cavia porcellus) (UniProt Q60492); assay: Binding affinity against sigma-1 receptor in guinea pig brain using [3H](+)-pentazocine as radioligand

Sigma non-opioid intracellular receptor 1 (Cavia porcellus), sequence (Q60492 whole entry, looked up): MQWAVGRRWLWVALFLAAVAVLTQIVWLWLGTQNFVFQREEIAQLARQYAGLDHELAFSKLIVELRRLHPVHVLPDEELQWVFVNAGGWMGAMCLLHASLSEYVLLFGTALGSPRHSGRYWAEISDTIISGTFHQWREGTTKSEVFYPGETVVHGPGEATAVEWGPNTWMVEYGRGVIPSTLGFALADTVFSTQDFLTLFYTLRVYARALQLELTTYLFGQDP

Row | Ki [1] [nM] | Ki [2] [nM] | SMILES
1 | 1.64 |  | O=C(NC1CCN(Cc2ccccc2)CC1)c1ccccc1I [N-(1-Benzyl-piperidin-4-yl)-2-iodo-benzamide]
2 |  | 3.02 | O=C(NC1CCN(Cc2ccccc2)CC1)c1cccc(I)c1 [N-(1-Benzyl-piperidin-4-yl)-3-iodo-benzamide]

Source: BindingDB's records for doi:10.1021/jm00038a002 (George Washington University Medical Center, 1994)
